Experimental data reported in patent US10874743B2, “IRAK degraders and uses thereof” (Kymera Therapeutics, Inc., priority 2017, dated 2020).
Where two headings read alike, the source gives them in different places.

Experiment: Pharmacokinetics in CD-1 mice (plasma concentrations, PK parameters)
Format: in vivo
Conditions: CD-1, mouse, plasma; for concentration at 5 min / concentration at 0.5 h / concentration at 1 h / concentration at 2 h / concentration at 4 h / concentration at 24 h: read-out: Concentration; for AUC(0-inf): read-out: AUCInf; for AUC(0-t): read-out: AUClast; for C0: read-out: C0; for MRT inf: read-out: MRTInf_obs; for Cmax: read-out: Cmax; for Tmax: read-out: Tmax
Description: Pharmacokinetics for I-127, I-172 and I-210 were determined in Sprague Dawley rats or CD-1 mice by dosing intravenous (IV), subcutaneous (SC) or per oral (PO) using facility SOPs and sampling plasma at required time points. Species, formulation, route of administration and time points samples are listed below for each compound.
Compounds were extracted from plasma, injected on reverse phase HPLC, eluted with a gradient from 5% to 95% acetonitrile in water and quantified by mass spectrometry with internal standard. Data are expressed in ng compound per mL of plasma.

[1] = iv, 2 mg/kg, mouse (CD1) iv 2 mg/kg, Mean
[2] = iv, 2 mg/kg, mouse (CD1) iv 2 mg/kg, individual Mouse 1-3
[3] = po, 30 mg/kg, mouse (CD1) po 30 mg/kg, Mean
[4] = po, 30 mg/kg, mouse (CD1) po 30 mg/kg, individual Mouse 4-6
[5] = sc, 30 mg/kg, mouse (CD1) sc 30 mg/kg, Mean
[6] = sc, 30 mg/kg, mouse (CD1) sc 30 mg/kg, individual Mouse 7-9

O=C1CCC(N2C(=O)c3cccc(NCCOCCOCCNCc4ccc(-n5cc(NC(=O)c6coc(-c7ccnc(NCC8CC8)c7)n6)c(C(F)F)n5)cc4)c3C2=O)C(=O)N1 (stereo not drawn) [I-210, 2-[2-(Cyclopropylmethylamino)-4-pyridyl]-N-[3-(difluoromethyl)-1-[4-[[2-[2-[2-[[2-(2,6-dioxo-3-piperidyl)-1,3-dioxoisoindolin-4-yl]amino]ethoxy]ethoxy]ethylamino]methyl]phenyl]pyrazol-4-yl]oxazole-4-carboxamide]
concentration at 5 min [1]: 589 ng/mL | concentration at 5 min [2]: 579 ng/mL | concentration at 0.25 h [1]: 390 ng/mL | concentration at 0.25 h [2]: 364 ng/mL | concentration at 0.5 h [1]: 283 ng/mL | concentration at 0.5 h [2]: 306 ng/mL | concentration at 1 h [1]: 193 ng/mL | concentration at 1 h [2]: 220 ng/mL | concentration at 2 h [1]: 90.8 ng/mL | concentration at 2 h [2]: 89.3 ng/mL | concentration at 4 h [1]: 26.1 ng/mL | concentration at 4 h [2]: 32.5 ng/mL | concentration at 8 h [1]: 5.19 ng/mL | concentration at 8 h [2]: 5.72 ng/mL | half-life [1]: 1.49 h | AUC(0-inf) [1]: 672 ng·h/mL | AUC(0-t) [1]: 661 ng·h/mL | C0 [1]: 726 ng/mL | MRT inf [1]: 1.5 h | half-life [2]: 1.52 h | AUC(0-inf) [2]: 714 ng·h/mL | AUC(0-t) [2]: 701 ng·h/mL | C0 [2]: 730 ng/mL | MRT inf [2]: 1.58 h | concentration at 0.25 h [3]: 30.8 ng/mL | concentration at 0.5 h [3]: 55 ng/mL | concentration at 1 h [3]: 72 ng/mL | concentration at 2 h [3]: 127 ng/mL | concentration at 2 h [4]: 177 ng/mL | concentration at 4 h [3]: 120 ng/mL | concentration at 4 h [4]: 92.5 ng/mL | concentration at 8 h [3]: 22.8 ng/mL | half-life [3]: 2.27 h | AUC(0-inf) [3]: 753 ng·h/mL | AUC(0-t) [3]: 676 ng·h/mL | Cmax [3]: 148 ng/mL | MRT inf [3]: 4.14 h | Tmax [3]: 3.33 h | half-life [4]: 2.59 h | AUC(0-inf) [4]: 917 ng·h/mL | AUC(0-t) [4]: 786 ng·h/mL | Cmax [4]: 177 ng/mL | MRT inf [4]: 4.22 h | Tmax [4]: 2 h | concentration at 0.25 h [5]: 79.3 ng/mL | concentration at 0.25 h [6]: 74.8 ng/mL | concentration at 0.5 h [5]: 85 ng/mL | concentration at 0.5 h [6]: 88.8 ng/mL | concentration at 1 h [5]: 97 ng/mL | concentration at 1 h [6]: 107 ng/mL | concentration at 2 h [5]: 95 ng/mL | concentration at 2 h [6]: 90 ng/mL | concentration at 4 h [5]: 98 ng/mL | concentration at 4 h [6]: 95.9 ng/mL | concentration at 8 h [5]: 43.5 ng/mL | concentration at 8 h [6]: 39.6 ng/mL | concentration at 24 h [5]: 2.85 ng/mL | concentration at 24 h [6]: 3.62 ng/mL | half-life [5]: 3.96 h | AUC(0-inf) [5]: 1040 ng·h/mL | AUC(0-t) [5]: 1020 ng·h/mL | Cmax [5]: 109 ng/mL | MRT inf [5]: 5.87 h
